Reference: ChEMBL document CHEMBL2163292, “1,2,3-Triazole-containing uracil derivatives with excellent pharmacokinetics as a novel class of potent human deoxyuridine triphosphatase inhibitors” (J Med Chem, 2012)

Columns and labels:
[1] = target: T1, Deoxyuridine 5'-triphosphate nucleotidohydrolase, mitochondrial (Homo sapiens, UniProt P33316); assay: Inhibition of human dUTPase assessed as reduction in [5-3H]dUMP production incubated for 15 mins by HPLC
T1 sequence (P33316 whole entry): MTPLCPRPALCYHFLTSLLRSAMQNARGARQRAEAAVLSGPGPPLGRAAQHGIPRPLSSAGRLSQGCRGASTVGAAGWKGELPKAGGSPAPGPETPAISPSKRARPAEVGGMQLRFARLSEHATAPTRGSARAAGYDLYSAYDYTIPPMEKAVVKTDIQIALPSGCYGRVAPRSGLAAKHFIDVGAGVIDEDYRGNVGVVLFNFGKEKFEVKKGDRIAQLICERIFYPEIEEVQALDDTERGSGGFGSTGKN

[2] = Cytotoxicity against human HeLaS3 cells incubated for 72 hrs by crystal violet assay; format: functional, cell-based; details: HeLa S3, 72 h
Mus musculus [3] = assay: Metabolic stability in Balb/cA mouse assessed as metabolite formation at 50 mg/kg, po administered as single dose measured after 0.5 hrs by reverse-phase ultra performance liquid chromatography; format: ADME, organism-based; parameters: dose 50 mg/kg, route oral; details: in vivo
[4] = Cmax in Balb/cA mouse at 50 mg/kg, po administered as single dose by reverse-phase ultra performance liquid chromatography; format: ADME, organism-based; parameters: dose 50 mg/kg, route oral; details: in vivo
[5] = Half life in Balb/cA mouse at 50 mg/kg, po administered as single dose by reverse-phase ultra performance liquid chromatography; format: ADME, organism-based; parameters: dose 50 mg/kg, route oral; details: in vivo
[6] = AUC (0 to t) in Balb/cA mouse at 50 mg/kg, po administered as single dose by reverse-phase ultra performance liquid chromatography; format: ADME, organism-based; parameters: dose 50 mg/kg, route oral; details: plasma
[7] = Tmax in Balb/cA mouse at 50 mg/kg, po administered as single dose by reverse-phase ultra performance liquid chromatography; format: ADME, organism-based; parameters: dose 50 mg/kg, route oral; details: in vivo
MX1 [8] = assay: Antitumor activity against human MX1 cells xenografted in Balb/cA JcL-nu mouse assessed as tumor growth inhibition at 300 mg/kg/day, po for 14 days and measured twice a week relative to untreated control; format: functional; details: MX1, 336 h
Mus musculus [9] = assay: Toxicity in Balb/cA JcL-nu mouse xenografted with human MX1 cells assessed as body weight loss at 300 mg/kg/day, po for 14 days co-treated with 5-FU at 15 mg/kg/day for 14 days and measured twice a week relative to untreated control; format: organism-based; details: in vivo, 336 h
MX1 [10] = assay: Potentiation of 5-FU induced antitumour activity against human MX1 cells xenografted in Balb/cA JcL-nu mouse assessed as tumor growth inhibition at 300 mg/kg/day, po for 14 days co-treated with 5-FU at 15 mg/kg/day for 14 days and measured twice weekly relative to untreated control; format: functional
MX1 [11] = assay: Antitumor activity against human MX1 cells xenografted in Balb/cA JcL-nu mouse assessed as tumor growth inhibition at 15 mg/kg/day, […] as continuous infusion using osmotic pump and measured twice a week relative to untreated control; format: functional

O=c1ccn(CCCCc2cnnn2CCc2cccc(OCC3CC3)c2)c(=O)[nH]1
IC50 [1]: 210 nM
EC50 [2]: 84000 nM

C[C@@H](Cn1nncc1CCCCn1ccc(=O)[nH]c1=O)c1cccc(OCC2CC2)c1
IC50 [1]: 58 nM

C[C@H](Cn1nncc1CCCCn1ccc(=O)[nH]c1=O)c1cccc(OCC2CC2)c1
IC50 [1]: 870 nM

CC[C@@H](Cn1nncc1CCCCn1ccc(=O)[nH]c1=O)c1cccc(OCC2CC2)c1
Stability (Mus musculus [3]): Unstable
IC50 [1]: 29 nM
EC50 [2]: 22000 nM
Cmax [4]: 8.69 µM
half-life [5]: 30 min
AUC(0-t) [6]: 4.56 µM·h
Tmax [7]: 30 min

CC[C@H](Cn1nncc1CCCCn1ccc(=O)[nH]c1=O)c1cccc(OCC2CC2)c1
IC50 [1]: 720 nM

CC[C@@](O)(Cn1nncc1CCCCn1ccc(=O)[nH]c1=O)c1cccc(OCC2CC2)c1
IC50 [1]: 150 nM
Cmax [4]: 62.1 µM
half-life [5]: 60 min
AUC(0-t) [6]: 67.4 µM·h
Tmax [7]: 30 min

CC[C@@](O)(Cn1nncc1CCCCn1ccc(=O)[nH]c1=O)c1cccc(OC2CCCC2)c1
IC50 [1]: 210 nM

CCOc1cccc([C@@](O)(CC)Cn2nncc2CCCCn2ccc(=O)[nH]c2=O)c1
IC50 [1]: > 1000 nM

CC[C@@](O)(Cn1nncc1CCCCn1ccc(=O)[nH]c1=O)c1cccc(OCC2(C)CC2)c1
IC50 [1]: 630 nM

CC[C@@](O)(Cn1nncc1CCCCn1ccc(=O)[nH]c1=O)c1cccc(OCC(C)C)c1
IC50 [1]: 550 nM

C=CCOc1cccc([C@@](O)(CC)Cn2nncc2CCCCn2ccc(=O)[nH]c2=O)c1
IC50 [1]: 360 nM

CC[C@@](O)(Cn1nncc1CCCCn1ccc(=O)[nH]c1=O)c1cccc(OC2CCOCC2)c1
IC50 [1]: > 1000 nM

CC[C@@](O)(Cn1nncc1CCCCn1ccc(=O)[nH]c1=O)c1cccc(OCC2CCC2)c1
IC50 [1]: 150 nM

CC[C@](O)(Cn1nncc1CCCCn1ccc(=O)[nH]c1=O)c1cccc(OCC2CC2)c1
IC50 [1]: > 1000 nM

CC[C@@](O)(Cn1nncc1CCOCn1ccc(=O)[nH]c1=O)c1cccc(OCC2CC2)c1
IC50 [1]: 170 nM

CC[C@@](O)(Cn1nncc1CCCCn1ccc(=O)[nH]c1=O)c1ccc(F)c(OCC2CC2)c1
Stability (Mus musculus [3]): Stable
inhibition in vivo at 300 mg/kg/day (MX1 [8]): -23.2%
Activity (Mus musculus [9]): Non-toxic
IC50 [1]: 67 nM
inhibition (INH) (MX1 [10]): 84.9%
EC50 [2]: 41000 nM
Cmax [4]: 49.8 µM
half-life [5]: 60 min
AUC(0-t) [6]: 57.3 µM·h
Tmax [7]: 60 min

CC[C@](O)(Cn1nncc1CCCCn1ccc(=O)[nH]c1=O)c1ccc(F)c(OCC2CC2)c1
IC50 [1]: 350 nM

O=c1ccn(CCCc2cnnn2CC(c2ccccc2)c2ccccc2)c(=O)[nH]1
IC50 [1]: 1300 nM
EC50 [2]: > 100000 nM

O=c1ccn(CCCCc2cnnn2CC(c2ccccc2)c2ccccc2)c(=O)[nH]1
IC50 [1]: 740 nM

O=c1ccn(CCCc2cnnn2C(c2ccccc2)c2ccccc2)c(=O)[nH]1
IC50 [1]: > 10000 nM

O=c1ccn(CCCCc2cnnn2C(c2ccccc2)c2ccccc2)c(=O)[nH]1
IC50 [1]: 1600 nM

O=c1ccn(CCCc2cnnn2CCc2ccccc2)c(=O)[nH]1
IC50 [1]: > 10000 nM

O=c1ccn(CCCCc2cnnn2CCc2ccccc2)c(=O)[nH]1
IC50 [1]: 3500 nM

COc1ccccc1CCn1nncc1CCCCn1ccc(=O)[nH]c1=O
IC50 [1]: 5700 nM

COc1cccc(CCn2nncc2CCCCn2ccc(=O)[nH]c2=O)c1
IC50 [1]: 4100 nM

COc1ccc(CCn2nncc2CCCCn2ccc(=O)[nH]c2=O)cc1
IC50 [1]: > 10000 nM

O=c1ccn(CCCCc2cnnn2CCc2ccccc2OCC2CC2)c(=O)[nH]1
IC50 [1]: 390 nM

O=c1[nH]cc(F)c(=O)[nH]1 [FLUOROURACIL]
inhibition in vivo at 15 mg/kg/day (MX1 [11]): 20%
